In the NIST ThermoML archive (doi:10.1016/j.jct.2009.06.016):
Where “and” joins values, the source holds several entries; their conditions need not be identical. Equal values may be shown once.

Assay: xn = mol fraction of the nth substance listed
Conditions: 101 kPa, Liquid, Vibrating tube method

CCCOCC(C)O (stereo not drawn) [1-propoxy-2-propanol] + O
mass density
Conditions	283.15 K	288.15 K	293.15 K	298.15 K	303.15 K
x1 = 0.001639	999.31 kg/m3	998.703 kg/m3	997.77 kg/m3	996.607 kg/m3	995.166 kg/m3
x1 = 0.003265	999.009 kg/m3	998.36 kg/m3	997.378 kg/m3	996.203 kg/m3	994.729 kg/m3
x1 = 0.01049	998.189 kg/m3	997.309 kg/m3	996.156 kg/m3	994.754 kg/m3	993.101 kg/m3
x1 = 0.01741	997.871 kg/m3	996.708 kg/m3	995.295 kg/m3	993.639 kg/m3	991.738 kg/m3
x1 = 0.02413	997.617 kg/m3	996.172 kg/m3	994.434 kg/m3	992.449 kg/m3	990.242 kg/m3
x1 = 0.02492	997.584 kg/m3	996.099 kg/m3	994.315 kg/m3	992.281 kg/m3	990.035 kg/m3
x1 = 0.03341	997.009 kg/m3	994.916 kg/m3	992.599 kg/m3	990.099 kg/m3	987.376 kg/m3
x1 = 0.0411	995.626 kg/m3	993.032 kg/m3	990.295 kg/m3	987.401 kg/m3	984.348 kg/m3
x1 = 0.04904	993.374 kg/m3	990.531 kg/m3	987.469 kg/m3	984.302 kg/m3	981.013 kg/m3
x1 = 0.05896	990.231 kg/m3	987.111 kg/m3	983.811 kg/m3	980.443 kg/m3	976.913 kg/m3
x1 = 0.06919	987.019 kg/m3	983.629 kg/m3	980.171 kg/m3	976.629 kg/m3	972.832 kg/m3
x1 = 0.07722	984.1 kg/m3	980.908 kg/m3	977.347 kg/m3	973.676 kg/m3	969.873 kg/m3
x1 = 0.08896	980.8 kg/m3	977.203 kg/m3	973.523 kg/m3	969.756 kg/m3	965.792 kg/m3
x1 = 0.09833	977.885 kg/m3	974.328 kg/m3	970.577 kg/m3	966.718 kg/m3	962.723 kg/m3
x1 = 0.1083	975.142 kg/m3	971.439 kg/m3	967.62 kg/m3	963.724 kg/m3	959.684 kg/m3
x1 = 0.1182	972.498 kg/m3	968.762 kg/m3	964.864 kg/m3	960.927 kg/m3	956.826 kg/m3
x1 = 0.1249	970.842 kg/m3	967.03 kg/m3	963.131 kg/m3	959.154 kg/m3	955.036 kg/m3
x1 = 0.1283	969.927 kg/m3	966.142 kg/m3	962.218 kg/m3	958.25 kg/m3	954.135 kg/m3
x1 = 0.1365	967.946 kg/m3	964.14 kg/m3	960.182 kg/m3	956.19 kg/m3	952.054 kg/m3
x1 = 0.1475	965.216 kg/m3	961.573 kg/m3	957.6 kg/m3	953.581 kg/m3	949.414 kg/m3
x1 = 0.1677	961.137 kg/m3	957.197 kg/m3	953.147 kg/m3	949.056 kg/m3	944.898 kg/m3
x1 = 0.1955	955.28 kg/m3	951.825 kg/m3	947.746 kg/m3	943.61 kg/m3	939.419 kg/m3
x1 = 0.2281	950.34 kg/m3	946.219 kg/m3	942.051 kg/m3	937.893 kg/m3	933.693 kg/m3
x1 = 0.2743	943.61 kg/m3	939.47 kg/m3	935.34 kg/m3	931.11 kg/m3	926.81 kg/m3
x1 = 0.3208	937.609 kg/m3	933.429 kg/m3	929.158 kg/m3	924.917 kg/m3	920.58 kg/m3
x1 = 0.3483	934.321 kg/m3	930.247 kg/m3	926.15 kg/m3	921.878 kg/m3	917.532 kg/m3
x1 = 0.3738	931.91 kg/m3	927.69 kg/m3	923.45 kg/m3	919.12 kg/m3	914.74 kg/m3
x1 = 0.4214	927.214 kg/m3	922.877 kg/m3	918.572 kg/m3	914.335 kg/m3	909.931 kg/m3
x1 = 0.4787	922.45 kg/m3	918.2 kg/m3	913.81 kg/m3	909.35 kg/m3	904.97 kg/m3
x1 = 0.5257	918.715 kg/m3	914.413 kg/m3	910.011 kg/m3	905.586 kg/m3	901.122 kg/m3
x1 = 0.548	916.854 kg/m3	912.761 kg/m3	908.503 kg/m3	904.085 kg/m3	899.604 kg/m3
x1 = 0.5771	915.29 kg/m3	910.9 kg/m3	906.52 kg/m3	902.07 kg/m3	897.57 kg/m3
x1 = 0.5977	913.887 kg/m3	909.422 kg/m3	905.093 kg/m3	900.499 kg/m3	896.129 kg/m3
x1 = 0.6247	912.186 kg/m3	907.847 kg/m3	903.425 kg/m3	898.961 kg/m3	894.432 kg/m3
x1 = 0.6264	–	907.647 kg/m3	903.218 kg/m3	898.785 kg/m3	894.261 kg/m3
x1 = 0.6385	911.37 kg/m3	906.945 kg/m3	902.498 kg/m3	897.87 kg/m3	893.542 kg/m3
x1 = 0.672	909.401 kg/m3	905.017 kg/m3	900.577 kg/m3	896.108 kg/m3	891.567 kg/m3
x1 = 0.6758	–	904.871 kg/m3	900.301 kg/m3	895.81 kg/m3	891.293 kg/m3
x1 = 0.6793	909.018 kg/m3	904.571 kg/m3	900.121 kg/m3	895.632 kg/m3	891.142 kg/m3
x1 = 0.7192	906.894 kg/m3	902.407 kg/m3	897.954 kg/m3	893.432 kg/m3	888.909 kg/m3
x1 = 0.7272	906.317 kg/m3	901.907 kg/m3	897.467 kg/m3	892.945 kg/m3	888.391 kg/m3
x1 = 0.7448	905.495 kg/m3	901.061 kg/m3	896.614 kg/m3	892.14 kg/m3	887.56 kg/m3
x1 = 0.7589	904.809 kg/m3	900.364 kg/m3	895.887 kg/m3	891.371 kg/m3	886.848 kg/m3
x1 = 0.7682	903.977 kg/m3	899.934 kg/m3	895.456 kg/m3	890.967 kg/m3	886.382 kg/m3
x1 = 0.7858	903.51 kg/m3	899.08 kg/m3	894.6 kg/m3	890.07 kg/m3	885.47 kg/m3
x1 = 0.7981	902.909 kg/m3	898.495 kg/m3	894.001 kg/m3	889.483 kg/m3	884.923 kg/m3
x1 = 0.8224	901.51 kg/m3	897.287 kg/m3	892.828 kg/m3	888.311 kg/m3	883.721 kg/m3
x1 = 0.8398	901.029 kg/m3	896.637 kg/m3	891.636 kg/m3	887.602 kg/m3	882.984 kg/m3
x1 = 0.8588	900.07 kg/m3	895.641 kg/m3	891.133 kg/m3	886.589 kg/m3	882.007 kg/m3
x1 = 0.8792	898.865 kg/m3	894.921 kg/m3	890.346 kg/m3	885.821 kg/m3	881.196 kg/m3
x1 = 0.8796	899.334 kg/m3	894.851 kg/m3	890.337 kg/m3	885.871 kg/m3	881.204 kg/m3
x1 = 0.8993	898.371 kg/m3	893.936 kg/m3	889.399 kg/m3	884.854 kg/m3	880.259 kg/m3
x1 = 0.9197	897.715 kg/m3 and 897.195 kg/m3	893.212 kg/m3 and 893.204 kg/m3	888.659 kg/m3 and 888.679 kg/m3	884.155 kg/m3 and 884.109 kg/m3	879.548 kg/m3 and 879.479 kg/m3
x1 = 0.9388	896.775 kg/m3	892.326 kg/m3	887.803 kg/m3	883.236 kg/m3	878.623 kg/m3
x1 = 0.9486	896.411 kg/m3	891.949 kg/m3	887.413 kg/m3	882.854 kg/m3	878.219 kg/m3
x1 = 0.9609	895.933 kg/m3	891.451 kg/m3	886.918 kg/m3	882.36 kg/m3	877.745 kg/m3
x1 = 0.9628	896.008 kg/m3	891.604 kg/m3	887.059 kg/m3	882.424 kg/m3	877.865 kg/m3
x1 = 0.9716	895.539 kg/m3	891.059 kg/m3	886.524 kg/m3	881.962 kg/m3	877.362 kg/m3
x1 = 0.9798	895.261 kg/m3	890.77 kg/m3	886.193 kg/m3	881.641 kg/m3	876.998 kg/m3
x1 = 0.9818	895.15 kg/m3	890.664 kg/m3	886.123 kg/m3	881.551 kg/m3	876.955 kg/m3
x1 = 0.9919	894.781 kg/m3	890.294 kg/m3	885.746 kg/m3	881.183 kg/m3	876.546 kg/m3
x1 = 1	894.462 kg/m3	889.963 kg/m3	885.456 kg/m3	880.837 kg/m3	876.279 kg/m3
